From patent US9057727B2, “Screening methods using G-protein coupled receptors and related compositions” (The General Hospital Corporation, priority 2007, dated 2015)
Ends that are not written are not given here. Peptide text beside a SMILES is read from it.

What was measured:
SaOS cells = assay: cAMP production in SaOS cells, dose-response; type: cell-based; conditions: Table 3; read-out: dose-response cAMP in SaOS (EC50)
[1] = molecular target: T1, human PTHR, G protein-coupled conformation (RG) (Homo sapiens, UniProt Q03431); assay: Competition binding to RG conformation of hPTHR (COS-7 membranes, GαsND, 125I-[Aib1,3,M]PTH(1-15) tracer)
T1 construct: expressed in transfected cells; host or cells: COS-7, transient (Fugene-6); membranes
T1 sequence (Q03431 27-593): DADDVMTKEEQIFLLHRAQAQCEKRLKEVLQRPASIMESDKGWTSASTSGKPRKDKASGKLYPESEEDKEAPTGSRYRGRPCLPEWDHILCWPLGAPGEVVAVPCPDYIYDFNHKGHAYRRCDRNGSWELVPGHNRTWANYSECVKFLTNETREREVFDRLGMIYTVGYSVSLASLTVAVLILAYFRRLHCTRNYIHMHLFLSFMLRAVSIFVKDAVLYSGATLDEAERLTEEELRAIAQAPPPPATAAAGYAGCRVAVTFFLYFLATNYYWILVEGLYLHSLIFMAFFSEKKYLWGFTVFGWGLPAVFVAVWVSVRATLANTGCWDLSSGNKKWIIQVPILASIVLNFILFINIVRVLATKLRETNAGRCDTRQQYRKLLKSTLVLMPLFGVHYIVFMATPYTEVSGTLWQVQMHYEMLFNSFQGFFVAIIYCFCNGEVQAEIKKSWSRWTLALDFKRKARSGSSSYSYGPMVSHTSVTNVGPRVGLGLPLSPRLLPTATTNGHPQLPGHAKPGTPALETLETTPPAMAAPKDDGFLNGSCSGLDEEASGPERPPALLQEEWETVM

[2] = test system: LLCPK1-B64 cells or SaOS-2 cells; assay: cAMP screen of substituted PTHrP(1-28) analogs (% parent); type: cell-based; conditions: parent PTHrP(1-28)NH
Method in brief: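 LLCPK1-B64 or SaOS-2 cells exposed to peptide analogs at 3×10^−9M with IBMX for 30 minutes at room temperature, then cAMP measured. Each analog's response expressed as percentage of that for parent PTHrP(1-28).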

[3] = molecular target: T2, human PTHR, G protein-uncoupled conformation (R^0) (Homo sapiens, UniProt Q03431); assay: Competition binding to R0 conformation of hPTHR (COS-7 membranes, GTPγS, 125I-PTH(1-34) tracer); conditions: parent PTHrP(1-28)NH
T2 construct: expressed in transfected cells; host or cells: COS-7, transient (Fugene-6)
T2 sequence (Q03431 27-593): T1 sequence (Q03431 27-593)
Method in brief: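 Bound versus free radioligand was separated by vacuum filtration after 90 min incubation of COS-7 hPTHR membranes (20-100 μg/mL) with tracer and competing peptides. Non-specific binding came from a saturating unlabeled analog.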

MC3T3-E1 cells [4] = assay: cAMP screen of EALK-PTHrP(1-31)/(1-34) variants (% parent); type: cell-based
Description: FIGS. 32A and 32B are graphs showing the effects of amino acid substitutions in the 29-31 region of EALK-PTHrP(1-31) (SEQ ID NO:94) (FIG. 32A) and the 29-33 region of EALK-PTHrP(1-34) (SEQ ID NO:112) (FIG. 32B) on induction of cAMP activity in MC3T3-E1 cells. Substitutions at position 29 for EALK-PTHrP(1-31) were G^29 to S^29 (SEQ ID NO:95-96), L^29 (SEQ ID NO:176), and N^29 to K^29 (SEQ ID NO:97-101). Substitutions at position 30 for EALK-PTHrP(1-31) were G^30 to D^30 (SEQ ID NO:102-106), W^30 (SEQ ID NO:177), and K^30 (SEQ ID NO:107). […] Substitutions for EALK-PTHrP(1-34) A^30 to A^33 (SEQ ID NO:113-116) and EALK-PTHrP(1-28)/PTH(29-34) (SEQ ID NO:117).
To optimize the activity of the EALK-PTHrP peptides, we generated EALK-PTHrP([…]) and PTHrP(1-34) variants with substitutions in the 29-33 region. In the 1-30 scaffold, Gly, Ser, Leu, Asn, Gln, Trp, Glu, and Lys were substituted at position 29; Gly, Ser, Leu, Asn, Asp, Trp, and Lys were substituted at position 30; and Ser, Leu, Asn, Val, Trp, Glu, and Lys were substituted at position 31. […] A predicted advantage of these longer-length peptides, relative to the PTHrP(1-30) scaffold, is that they will have longer a longer half-life in circulation due to slower clearance. The C-terminal substitutions were thus designed to provide the added chain length, but to avoid increasing R^0 binding affinity, which occurs when the native PTHrP(29-34) region (SEQ ID NO:186) is installed. These peptides were tested for cAMP activity in MC3T3-E1 cells.

MC3T3-E1 cells [5] = assay: cAMP in MC3T3-E1 cells, dose-response; type: cell-based; conditions: Table 3; read-out: dose-response cAMP in MC3T3-E1 (EC50)
Experimental: In the 1-30 scaffold, Gly, Ser, Leu, Asn, Gln, Trp, Glu, and Lys were substituted at position 29; Gly, Ser, Leu, Asn, Asp, Trp, and Lys were substituted at position 30; and Ser, Leu, Asn, Val, Trp, Glu, and Lys were substituted at position 31. […] These peptides were tested for cAMP activity in MC3T3-E1 cells.

[6] = parent E18,A22,L25,K26-PTHrP(1-34)OH
[7] = parent E18,A22,L25,K26-PTHrP(1-31)OH

Compound | EC50 (SaOS cells) [nM] | EC50 (MC3T3-E1 cells [5]) [nM] | screen cAMP (% parent) [2] [% parent] | screen cAMP (% parent) (MC3T3-E1 cells [4]; [7]) | further results
CC[C@H](C)[C@H](NC(=O)[C@H](CC(C)C)NC(=O)[C@H](CCCCN)NC(=O)[C@H](CC(C)C)NC(=O)[C@H](CC(C)C)NC(=O)[C@H](Cc1ccccc1)NC(=O)[C@H](CO)NC(=O)[C@H](CCCNC(=N)N)NC(=O)[C@H](CCCNC(=N)N)NC(=O)[C@H](CCCNC(=N)N)NC(=O)[C@H](C)NC(=O)[C@H](CC(=O)O)NC(=O)[C@H](CCC(N)=O)NC(=O)[C@@H](NC(=O)[C@H](CO)NC(=O)[C@H](CCCCN)NC(=O)CNC(=O)[C@H](CCCCN)NC(=O)[C@H](CC(=O)O)NC(=O)[C@H](Cc1c[nH]cn1)NC(=O)[C@H](CC(C)C)NC(=O)[C@H](CC(C)C)NC(=O)[C@H](CCC(N)=O)NC(=O)[C@H](Cc1c[nH]cn1)NC(=O)[C@H](CCC(=O)O)NC(=O)[C@H](CO)NC(=O)[C@@H](NC(=O)[C@H](C)N)C(C)C)[C@@H](C)CC)C(N)=O [A18, S22, L25, K26-PTHrP(1-28)NH, A18,S22,L25,K26-PTHrP(1-28)] (H-AVSEHQLLHDKGKSIQDARRRSFLLKLI-NH2; N-terminus assumed) | 0.009 | – | 367 | – | IC50 ([1]; Table 3, read-out: dose-response human PIR RG (IC50 nM)): 0.1 nM
AVSEHQLLHDKGKSIQDARRRSFLHKLI [A18, S22, K26-PTHrP(1-28)NH, A18,S22,K26-PTHrP(1-28)] | 0.038 | – | 372 | – | screen human PIR R0 (% parent) [3]: 155 % parent; screen human PIR RG (% parent) ([1]; parent PTHrP(1-28)NH): 175 % parent
AVSEHQLLHDKGKSIQDARRRSFLKKLI [A18, S22, K25, 26-PTHrP(1-28)NH, A18,S22,K25,26-PTHrP(1-28)] | 0.015 | – | 316 | – | –
AVSEHQLLHDKGKSIQDERRRAFLKKLI [E18, A22, K25, 26-PTHrP(1-28)NH, E18,A22,K25,26-PTHrP(1-28)] | 0.054 | – | 323 | – | –
AVSEHQLLHDKGKSIQDERRRAFLLKLIADI [E18, A22, L25, K26, D30-PTHrP(1-31)OH, E18,A22,L25,K26,D30-PTHrP(1-31)] | – | 0.32 | – | 251 | –
AVSEHQLLHDKGKSIQDERRRAFLLKLIAEAHTA [E18, A22, L25, K26, A31-PTHrP(1-34)OH, E18,A22,L25,K26,A31-PTHrP(1-34)] | – | 0.15 | – | – | screen cAMP (% parent) (MC3T3-E1 cells [4]; [6]): 249 % parent
AVSEHQLLHDKGKSIQDERRRAFLLKLIAEIHTA [E18, A22, L25, K26-PTHrP(1-34)OH, E18,A22,L25,K26-PTHrP(1-34)] | – | 0.45 | – | – | screen cAMP (% parent) (MC3T3-E1 cells [4]; [6]): 100 % parent
AVSEHQLLHDKGKSIQDERRRAFLLKLIAEL [E18, A22, L25, K26, L31-PTHrP(1-31)OH, E18,A22,L25,K26,L31-PTHrP(1-31)] | – | 0.25 | – | 198 | –
AVSEHQLLHDKGKSIQDERRRAFLLKLIASI [E18, A22, L25, K26, S30-PTHrP(1-31)OH, E18,A22,L25,K26,S30-PTHrP(1-31)] | – | 0.12 | – | 331 | –
AVSEHQLLHDKGKSIQDERRRAFLLKLIQDVHNF [E18,A22,L25,K26,Q29,D30,V31,N33,F34-PTHrP(1-34)] | – | 0.56 | – | – | screen cAMP (% parent) (MC3T3-E1 cells [4]; [6]): 204 % parent
AVSEHQLLHDKGKSIQDERRRAFLLKLISEI [E18, A22, L25, K26, S29-PTHrP(1-31)OH, E18,A22,L25,K26,S29-PTHrP(1-31)] | – | 0.41 | – | 209 | –
E18,A22,L25,K26,W29-PTHrP(1-31) (AVSEHQLLHDKGKSIQDERRRAFLLKLIWEI-OH) [E18, A22, L25, K26, W29-PTHrP(1-31)OH] | – | – | – | 142 | –

Further lines, with some results ahead:

EC50 (SaOS cells) [nM] | EC50 (MC3T3-E1 cells [5]) [nM] | Compound | screen cAMP (% parent) [2] [% parent] | screen cAMP (% parent) (MC3T3-E1 cells [4]; [7]) | further results
0.055 | – | CC[C@H](C)[C@H](NC(=O)[C@H](CC(C)C)NC(=O)[C@H](CCCCN)NC(=O)[C@H](CC(C)C)NC(=O)[C@H](CC(C)C)NC(=O)[C@H](Cc1ccccc1)NC(=O)[C@H](CO)NC(=O)[C@H](CCCNC(=N)N)NC(=O)[C@H](CCCNC(=N)N)NC(=O)[C@H](CCCNC(=N)N)NC(=O)[C@H](CCC(=O)O)NC(=O)[C@H](CC(=O)O)NC(=O)[C@H](CCC(N)=O)NC(=O)[C@@H](NC(=O)[C@H](CO)NC(=O)[C@H](CCCCN)NC(=O)CNC(=O)[C@H](CCCCN)NC(=O)[C@H](CC(=O)O)NC(=O)[C@H](Cc1c[nH]cn1)NC(=O)[C@H](CC(C)C)NC(=O)[C@H](CC(C)C)NC(=O)[C@H](CCC(N)=O)NC(=O)[C@H](Cc1c[nH]cn1)NC(=O)[C@H](CCC(=O)O)NC(=O)[C@H](CO)NC(=O)[C@@H](NC(=O)[C@H](C)N)C(C)C)[C@@H](C)CC)C(N)=O [E18, S22, L25, K26-PTHrP(1-28)NH, E18,S22,L25,K26-PTHrP(1-28)] (H-AVSEHQLLHDKGKSIQDERRRSFLLKLI-NH2; N-terminus assumed) | 337 | – | –
0.012 | – | AVSEHQLLHDKGKSIQDARRRAFLKKLI [A18, 22, K25, 26-PTHrP(1-28)NH, A18,22,K25,26-PTHrP(1-28)] | 349 | – | –
– | 0.14 | AVSEHQLLHDKGKSIQDERRRAFLLKLIAAIHTA [E18, A22, L25, K26, A30-PTHrP(1-34)OH, E18,A22,L25,K26,A30-PTHrP(1-34)] | – | – | screen cAMP (% parent) (MC3T3-E1 cells [4]; [6]): 237 % parent
– | 0.78 | AVSEHQLLHDKGKSIQDERRRAFLLKLIAEI [E18, A22, L25, K26-PTHrP(1-31)OH, E18,A22,L25,K26-PTHrP(1-31)] | – | 100 | –
– | 0.2 | AVSEHQLLHDKGKSIQDERRRAFLLKLIAKI [E18, A22, L25, K26, K30-PTHrP(1-31)OH, E18,A22,L25,K26,K30-PTHrP(1-31)] | – | 245 | –
– | 0.28 | AVSEHQLLHDKGKSIQDERRRAFLLKLIKEI [E18, A22, L25, K26, K29-PTHrP(1-31)OH, E18,A22,L25,K26,K29-PTHrP(1-31)] | – | 227 | –
– | 0.59 | AVSEHQLLHDKGKSIQDERRRAFLLKLIQEI [E18, A22, L25, K26, Q29-PTHrP(1-31)OH, E18,A22,L25,K26,Q29-PTHrP(1-31)] | – | 226 | –
